Laboratory results taken from patent US11548875B2, “Inhibitor compounds for male contraception” (University of Washington, priority 2018, dated 2023).

Tests used:
ALDH2 = target: T1, ALDH2 (Homo sapiens, UniProt P05091); test: Purified ALDH2 assay with propanal, NADH fluorescence; type: biochemical; settings: purified enzyme
T1 construct: histidine-tag (N); made in house; host or cells: bacterial expression (pETite vector, IPTG induction)
T1 sequence (P05091 18-517): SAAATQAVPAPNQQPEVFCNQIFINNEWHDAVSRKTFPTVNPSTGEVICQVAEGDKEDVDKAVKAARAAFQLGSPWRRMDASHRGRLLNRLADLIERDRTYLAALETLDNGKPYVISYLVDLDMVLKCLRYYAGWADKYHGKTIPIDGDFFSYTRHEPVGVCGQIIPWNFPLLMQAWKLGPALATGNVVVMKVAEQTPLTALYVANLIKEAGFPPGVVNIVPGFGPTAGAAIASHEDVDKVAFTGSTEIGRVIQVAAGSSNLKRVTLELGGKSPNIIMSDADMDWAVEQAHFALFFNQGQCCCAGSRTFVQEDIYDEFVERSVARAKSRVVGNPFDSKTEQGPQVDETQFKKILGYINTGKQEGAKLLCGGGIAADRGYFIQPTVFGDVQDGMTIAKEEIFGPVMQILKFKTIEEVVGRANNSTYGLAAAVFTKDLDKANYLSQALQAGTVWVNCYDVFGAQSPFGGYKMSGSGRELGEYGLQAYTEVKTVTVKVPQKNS
Summary of the method: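 His-tagged human ALDH2 expressed in bacteria and purified. 2 μg enzyme incubated with 20 μM propanal and varying inhibitor concentrations at room temperature. Activity read as NADH fluorescence (Ex 350/Em 460 nm), with initial velocity from two consecutive readings over 1 minute.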

ALDH1A1 = target: T2, ALDH1A1 (Homo sapiens, UniProt P00352); test: Cell-based enzyme assay, retinoic acid production in ALDH1A1/H1299 cells
T2 sequence (P00352 1-501): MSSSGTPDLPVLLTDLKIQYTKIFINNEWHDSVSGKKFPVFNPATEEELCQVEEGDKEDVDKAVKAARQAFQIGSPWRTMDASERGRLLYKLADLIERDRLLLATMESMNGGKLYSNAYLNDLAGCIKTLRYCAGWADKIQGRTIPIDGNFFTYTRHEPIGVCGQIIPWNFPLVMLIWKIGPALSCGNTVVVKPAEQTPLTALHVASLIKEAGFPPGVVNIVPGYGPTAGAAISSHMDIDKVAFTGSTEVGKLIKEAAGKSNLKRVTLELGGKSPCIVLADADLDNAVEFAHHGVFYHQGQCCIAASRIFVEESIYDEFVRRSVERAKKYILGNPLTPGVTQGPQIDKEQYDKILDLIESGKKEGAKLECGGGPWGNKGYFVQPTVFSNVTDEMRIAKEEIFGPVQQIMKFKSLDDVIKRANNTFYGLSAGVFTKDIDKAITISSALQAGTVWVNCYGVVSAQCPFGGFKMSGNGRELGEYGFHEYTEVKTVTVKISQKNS
Summary of the method: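 ALDH1A1- or ALDH1A2-stably transfected H1299 cells grown to confluence, then treated 20 h in serum-free RPMI-1640 with 2 μM all-trans-retinal plus varying inhibitor concentrations at 37 °C. Retinoic acid in cells and media quantified; inhibition from RA levels with vs without inhibitor.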

Question: Cn1cccc1C(=O)N1CCN(c2ccc([N+](=O)[O-])c(N3CCCC3)c2)CC1 [Compound 343, [4-(4-Nitro-3-(pyrrolidin-1-yl)phenyl)piperazin-1-yl](1-methyl-1H-pyrrol-2-yl)methanone] was tested. Which IC50 (ALDH2) did it give?
Answer: 97.5 µM

Question: And the EC50 (ALDH1A1)?
Answer: < 0.5 µM

Question: O=C(c1ccc[nH]1)N1CCN(c2ccc([N+](=O)[O-])c(N3CCCC3)c2)CC1 [Compound 344, {4-[4-Nitro-3-(pyrrolidin-1-yl)phenyl]piperazin-1-yl}(1H-pyrrol-2-yl)methanone] was tested. Which IC50 (ALDH2) did it give?
Answer: 48.6 µM

Question: And the EC50 (ALDH1A1)?
Answer: < 0.5 µM

Question: For COc1ccc(C(=O)N2CCN(c3ccc([N+](=O)[O-])c(N4CCCC4)c3)CC2)cc1 [Compound 345, 4-Methoxyphenyl-1-{4-[4-nitro-3-(pyrrolidin-1-yl)phenyl]piperazin-1-yl}methanone], which IC50 (ALDH2) is on record?
Answer: > 100 µM

Question: What about the EC50 (ALDH1A1) of the same compound?
Answer: < 0.5 µM

Question: CN(C)c1ccc(C(=O)N2CCN(c3ccc([N+](=O)[O-])c(N4CCCC4)c3)CC2)cc1 [Compound 346, 4-Dimethylaminophenyl-1-{4-[4-nitro-3-(pyrrolidin-1-yl)phenyl]piperazin-1-yl}methanone] was tested. Which IC50 (ALDH2) did it give?
Answer: > 100 µM

Question: And the EC50 (ALDH1A1)?
Answer: < 0.5 µM

Question: What does the source list for CC(=O)n1cccc1C(=O)N1CCN(c2ccc([N+](=O)[O-])c(N3CCCC3)c2)CC1 [Compound 347, {4-[4-Nitro-3-(pyrrolidin-1-yl)phenyl]piperazin-1-yl}(1-acetyl-pyrrol-2yl)methanone]?
Answer: IC50 (ALDH2): 61.6 µM; EC50 (ALDH1A1): 0.33 µM

Question: With Cn1cccc1C(=O)N1CCN(c2ccc(NC(=O)C(Cl)Cl)c(N3CCCC3)c2)CC1 [Compound 367, 1-[4-(4-N-Dichloroacetyl-3-(pyrrolidin-1-yl)phenyl]piperazin-1-yl](1-methyl-1H-pyrrol-2-yl)methanone] as the compound, how does the IC50 (ALDH2) read?
Answer: > 80 µM

Question: What about the EC50 (ALDH1A1) of the same compound?
Answer: 0.244 µM

Question: What does the source list for Cn1cccc1C(=O)N1CCN(c2ccc(NC(=O)CCl)c(N3CCCC3)c2)CC1 [Compound 372, 1-[4-(4-N-Chloroacetyl-3-(pyrrolidin-1-yl)phenyl]piperazin-1-yl](1-methyl-1H-pyrrol-2-yl)methanone]?
Answer: IC50 (ALDH2): 3.5 µM; EC50 (ALDH1A1): 0.069 µM

Question: Cn1cccc1C(=O)N1CCN(c2ccc(-c3ccc([N+](=O)[O-])cc3)c(N3CCCCC3)c2)CC1 [Compound 373] was tested. Which IC50 (ALDH2) did it give?
Answer: > 100 µM

Question: What about the EC50 (ALDH1A1) of the same compound?
Answer: 0.37 µM
